Experimental data from patent publication US11179409B2, “Cucurbitane tetracyclic triterpenoid compounds for application in treating pulmonary fibrosis” (CHENGDU BIOPURIFY LTD., priority 2015, dated 2021).

How the values were obtained:
[1] = tested on: bleomycin-induced pulmonary fibrosis model mice; experiment: Bleomycin-induced mice pulmonary fibrosis model (tracheal bleomycin, stomach perfusion of drug); assay type: in vivo; conditions: for No. of neutrophils in bronchoalveolar lavage fluid / Total No. of cells in bronchoalveolar lavage fluid: n = 5; for Lung tissue fibrosis degree (Masson staining) compared with model group: mice killed on day 28; for Lung coefficients compared with model group: day 28 after modeling, FIG. 7
[2] = tested on: bleomycin-induced pulmonary fibrosis model mice; experiment: as above; assay type: in vivo; conditions: for Body weights compared with model group / Lung coefficients (lung weight mg/body weight g) compared with model group: high-dose and low-dose mogroside IIIe groups, prednisone acetate 6.67 mg/kg/d, P<0.01; for Body weights compared with model group: after 14 and 28 days of administration, FIG. 1; for Lung coefficients (lung weight mg/body weight g) compared with model group: after administration for 14 days and 28 days, FIG. 2; for Lung tissue fibrosis degree (Masson staining) compared with model group: lung section on day 28, FIG. 3
From the text: The above mogroside IIIe is selected to be subjected to in-vivo pharmacodynamical research. Injection of a bleomycin-induced mice pulmonary fibrosis model is a commonly used method in the world, and such model is similar to a human pulmonary interstitial fibrosis model.
100 male ICR mice with a body weight of 25-30 g are provided by Comparative Medicine Center of Yangzhou University.
20 mice are used as a blank control group (control group in FIG. 1), and the other 80 mice are used for modeling. All the above mice are anesthetized by virtue of intraperitoneal injection of 4% chloral hydrate, with injection volume of 10 ml/kg. After anesthesia, each mouse is fixed and the neck of the mouse is disinfected; the skin of its neck is cut longitudinally with scissors to expose the trachea; the syringe is inserted into the trachea. The mice in the blank control group are injected with normal saline, and the remaining mice are injected with bleomycin (5 mg/kg); then the mouse plate is quickly erected and rotated, and the wound of each mouse is sutured after observing the breathing condition of the mouse, and 1-2 drops of penicillin injection are dropped at the suture. The postoperative mouse is placed back in a dry and clean mouse cage for rest, and then is normally fed after it revives approximately 1-2 h later.
Starting from the day 7 after modeling, the other 80 mice are randomly divided into a model group, a positive drug (prednisone acetate) group, a high-dose mogroside IIIe (50 mg/kg, mogroside IIIe-H) group, a low-dose mogroside IIIe group (10 mg/kg, mogroside IIIe-L), 20 mice in each group.
The mice in the blank control group and the model group are subjected to stomach perfusion with normal saline every day, the mice in the positive drug group are subjected to stomach perfusion with 6.67 mg/kg/d prednisone acetate, the mice in the high-dose/low-dose mogroside IIIe groups are subjected to stomach perfusion with 50 mg/kg/d and 10 mg/kg/d respectively for continuous 28 days, and are killed on the day 14 and the day 28. The each mouse is recorded in body weight, the lung tissue is taken out via dissection, cleaned with ice normal saline, sucked dry with absorbent paper and weighed, and then a lung coefficient is calculated, i.e., lung coefficient=lung weight (mg)/body weight (g). The left lung is put into 4% neutral formaldehyde for fixation, gradually dehydrated with alcohol, transparentized with xylene, immersed in wax, embedded in paraffin, then routinely sectioned and subjected to Masson staining, so that the lung tissue morphology, lung injury condition and pulmonary fibrosis degree are observed. Other lung lobes are individually stored for determination of HYP content.
All data are expressed as mean±SD(x±s). SPSS 11.5 statistical software is used for processing. Statistical analysis is performed using one-way ANOVA. P<0.05 represents this group has statistical significance.
For mice lung tissue injury caused by bleomycin, the number of leukocytes is increased, especially neutrophil infiltration causes alveolar inflammation, and inflammatory cells release inflammatory mediators NO, TNF-α and various cytokines, thereby on one hand, aggravating lung tissue injury and on the other hand promoting excessive increase of collagen through various growth factors. This experiment is performed in accordance with requirement specification of a kit. The number of leukocytes in the bronchoalveolar lavage fluid of the mice in each group is detected by a colorimetric method on the day 14 (as shown in Table 1). Neutrophils and lymphocytes are obviously accumulated in the bronchoalveolar lavage fluid of the mice on the day 14 after treatment with bleomycin (BLM).
Hydrooxyproline (HPY) is an amino acid obtained through protein hydrolysis of connective tissues, accounts for about 14% of the weight of collagen and plays a crucial role in stability of collagen. […]

[3] = tested on: LPS-induced RAW264.7 cells; experiment: NO level in LPS-induced RAW264.7 cells; assay type: cell-based, mice; conditions: within a range of 10-100 μM
[4] = tested on: TGF-β1-induced human alveoli type II epithelial cells (A549); experiment: α-SMA expression (Western blot) in TGF-β1-induced A549 epithelial-mesenchymal transition; assay type: cell-based; conditions: TGF-β1 5 ng/mL, culture 48 hours, concentration of 50 μM, FIG. 5
From the text: Alveolar epithelial cells can obtain mesenchymal cell phenotypes through an epithelial cell-mesenchyme transformation (EMT) process to serve as an important source of myofibroblast and muscle fiber metrocyte. In this new mode, epithelial cell-mesenchyme transformation of pulmonary alveoli should be considered as one of key links of fibrosis. In mature cells, injury can induce transformation of epithelial cells into mesenchymal cell phenotype, thus facilitating the fibrosis of many organs. Fibroblasts and muscle fiber metrocytes differentiated from epithelial cells often change through form (for example, change from a cubical cell form to a strip form or a fusiform), obtaining of specific marker of the fibroblast or the muscle fiber metrocyte (for example, α-SMA) and loss of the epithelial character marker (for example, epithelial cell cadherin (E-cadherin and closely linked protein) are fussed together with these epithelial tissues. Through an in-vitro test, A549 cells are induced with TGF-β1 to generate epithelial cell-mesenchyme transformation (EMT), the α-SMA expression level of actin is analyzed adopting a Western blot method, and study meaning of mogroside IIIe on pathogensis of pulmonary fibrosis in a signal transduction pathway of an EMT process is discussed. […]

[5] = Example 3, Table 3, 50 mg/kg high-dose group, day 14, vs model group
[6] = Example 3, mogrol 50 mg/kg and 20 mg/kg, prednisone acetate 7.0 mg/kg/d, FIG. 9
[7] = Example 2, mogroside IVe 50 mg/kg and 20 mg/kg, prednisone acetate 6.67 mg/kg/d, after administration for 14 days and 28 days, P<0.01, FIG. 6
[8] = Example 2, mogroside IVe 50 mg/kg and 20 mg/kg, prednisone acetate 6.67 mg/kg/d, P<0.01
[9] = Example 2, Table 2, 50 mg/kg high-dose group, day 14, *P<0.05 vs model group
[10] = Example 1, Table 1, 50 mg/kg high-dose group, day 14, mean±SD, *P<0.05 vs model group
[11] = Example 1, on the 28 d after administration, P<0.05 or P<0.01

| SMILES | Body weights compared with model group [1, 6] | Body weights compared with model group ([2]; Example 1) | Lung coefficients (lung weight mg/body weight g) compared with model group ([2]; Example 1) | Lung tissue fibrosis degree (Masson staining) compared with model group ([2]; Example 1) | Lung tissue fibrosis degree (Masson staining) compared with model group ([1]; Example 2, FIG. 8) | Body weights compared with model group [1, 7] | Lung coefficients compared with model group [1, 8] | further results |
| --- | --- | --- | --- | --- | --- | --- | --- | --- |
| C[C@H](CC[C@@H](O)C(C)(C)O)[C@H]1CC[C@@]2(C)[C@@H]3CC=C4[C@@H](CC[C@H](O)C4(C)C)[C@]3(C)[C@H](O)C[C@]12C [mogrol] | obviously increased | – | – | – | – | – | – | No. of neutrophils in bronchoalveolar lavage fluid [1, 5]: 4.16 ± 4.26 ×10^4; Total No. of cells in bronchoalveolar lavage fluid [1, 5]: 34.72 ± 17.83 ×10^4; Lung tissue fibrosis degree (Masson staining) compared with model group ([1]; Example 3, high-dose/low-dose mogrol (50, 20 mg/kg), FIG. 10): fibroblast hyperplasia degree is lower than that in the model group; Lung index compared with model group ([1]; Example 3, high-dose/low-dose mogrol groups): obviously reduce lung index |
| CC(=O)OCC(=O)[C@@]1(O)CC[C@H]2[C@@H]3CCC4=CC(=O)C=C[C@]4(C)[C@H]3C(=O)C[C@@]21C [prednisone acetate, reference compound] | obviously increased | obviously increased | obviously decreased | the degree of the lesion is relieved than that in the model group | relieved | obviously increased | obviously reduced | – |
| C[C@H](CC[C@@H](O[C@@H]1O[C@H](CO)[C@@H](O)[C@H](O)[C@H]1O[C@@H]1O[C@H](CO)[C@@H](O)[C@H](O)[C@H]1O)C(C)(C)O)[C@H]1CC[C@@]2(C)[C@H]3CC=C4[C@@H](CC[C@H](O[C@@H]5O[C@H](CO[C@@H]6O[C@H](CO)[C@@H](O)[C@H](O)[C@H]6O)[C@@H](O)[C@H](O)[C@H]5O)C4(C)C)[C@]3(C)[C@H](O)C[C@]12C [mogroside IVe] | – | – | – | – | fibroblast hyperplasia degree is lower than that in the model group | obviously increased | obviously reduced | No. of neutrophils in bronchoalveolar lavage fluid [1, 9]: 3.97 ± 3.89* ×10^4; Total No. of cells in bronchoalveolar lavage fluid [1, 9]: 30.84 ± 16.49* ×10^4 |
| C[C@H](CC[C@@H](O[C@@H]1O[C@H](CO)[C@@H](O)[C@H](O)[C@H]1O[C@@H]1O[C@H](CO)[C@@H](O)[C@H](O)[C@H]1O)C(C)(C)O)[C@H]1CC[C@@]2(C)[C@@H]3CC=C4[C@@H](CC[C@H](O[C@@H]5O[C@H](CO)[C@@H](O)[C@H](O)[C@H]5O)C4(C)C)[C@]3(C)[C@H](O)C[C@]12C [mogroside IIIe] | – | obviously increased | obviously decreased | fibroblast hyperplasia degree is lower than that in the model group | – | – | – | Level of NO [3]: dose dependence to inhibit the level of NO; Total number of cells in bronchoalveolar lavage fluid [2, 10]: 32.81 ± 18.53*; Content of TNF-α in the lung tissue compared with model group [2, 11]: significantly lower than those in the model group; α-SMA expression caused by TGF-β1 [4]: significantly inhibit; Number of neutrophils in bronchoalveolar lavage fluid [1, 10]: 4.28 ± 4.52*; Content of HYP in lung tissue compared with model group ([1]; Example 1, 50 mg/kg, day 28, digestion method, P<0.05, FIG. 4): obviously reduce the content of HYP; Content of TGF-β1 compared with model group [1, 11]: significantly lower than those in the model group |
